# Test results reported in patent US20240358693A1, “METHODS OF TREATING PAIN” (Aisa Pharma, Inc., priority 2023, published 2024).
# Tested on: participants with SSc-RP
# Assay: Scleroderma Health Assessment Questionnaire (SHAQ): disability indices and visual analog scales
# Type: in vivo, human
# Settings: PP Population, Part A, SSc patients, sensitivity analysis
# From the text: The standard, validated, patient reported outcome measures tool for SSc patients, the Scleroderma Health Assessment Questionnaire (SHAQ), will be used to assess the participant qualify of life. Details are attached in the Appendix. The participant quality of life will be scored, and a disability index calculated for each questionnaire completed by the patient at Screening and each in-clinic visit. The absolute change in participant quality of life from baseline to the end of each dosing period will be calculated similar to frequency data as before.
# The SHAQ includes a Raynaud's VAS, which will be reported at screening and each in-clinic visit. The absolute change in Raynaud-VAS, assessed by the participants response to the SHAQ question ‘In the past 7 days, how much have your Raynaud's interfered with your daily activities?’ at baseline and the end of each dosing period will be calculated similar to frequency data as before.
# The SHAQ is used to calculate a Disability Index to assess the participant qualify of life. The eight categories assessed by the Disability Index are 1) dressing and grooming, 2) arising, 3) eating, 4) walking, 5) hygiene, 6) reach, 7) grip, and 8) common daily activities. For each of these categories, patients report the amount of difficulty they have in performing two or three specific activities.
# There are four possible responses for the Disability Index questions: • Without any difficulty=0 • With some difficulty=1 • With much difficulty=2 • Unable to do=3. • The highest score reported by the patient for any component question of the eight categories determines the score for that category. • If a component question is left blank or the response is too ambiguous to assign a score, then the score for that category is determined by the remaining completed question(s). • If all component questions are blank or if more than one answer is given, then follow up with the respondent is required. • If the respondent's mark is between the response columns, then move it to the closest one. If it's directly between the two, move it to the higher one.
# Each of the disability items on the SHAQ has a companion aids/devices variable that is used to record what type(s) of assistance, if any, the participant uses for his/her usual activities. These variables (see below) are coded as follows: • 0=No assistance is needed. • 1=A special device is used by the patient in his/her usual activities. • 2=The patient usually needs help from another person. • 3=The patient usually needs BOTH a special device AND help from another person.
# The scoring variables and scoring rules permit the computation of two disability indices, the Standard Disability Index and the Alternative Disability Index.
# This question results in a new set of category scores that are computed by adjusting the score for each category, if necessary, based on the patient's use of an aid or device or assistance for that category. If either devices and/or help from another person are checked for a category, the score is set to “2”, unless the score is already “3” (i.e., scores of “0” or “1” are increased to “2”). For example, if the highest score for the dressing category is “1”, and the patient says they use a device for dressing, the computed category score would be “2”. The sum of the computed categories scores is then calculated and divided by the number of categories answered. This gives a score in the 0 to 3 range.
# The aid and device variables are not used to calculate the alternative disability index; it is calculated by adding the scores for each of the categories and dividing by the number of categories answered. This gives a score in the 0 to 3 range.
# The standard, validated, patient reported outcome measures tool for SSc patients, the SHAQ, was collected at the time points specified in the study schedules (FIG. 2 and FIGS. 4A and 4B) to assess the participant's quality of life. The SHAQ included a Raynaud's VAS that will also be reported separately.
# [1] = Day 12 vs baseline, Subject 01-110 Day 12 score excluded
# [2] = In-Clinic Visit (Day 12), Subject 01-110 Day 12 score excluded
smiles,measurement,setting,value
COCCOC(=O)C1=C(C)NC(C)=C(C(=O)OC/C=C/c2ccccc2)C1c1cccc([N+](=O)[O-])c1 (stereo not drawn) [Any Cilnidipine],"SHAQ Visual Analogue Scale - Raynaud’s, Change from Baseline, Min",Day 12 vs baseline,−4.10
same,"SHAQ Visual Analogue Scale - Raynaud’s, Change from Baseline, Q1",Day 12 vs baseline,−1.000
same,"SHAQ Visual Analogue Scale - Raynaud’s, Change from Baseline, Q3",Day 12 vs baseline,0.000
same,"SHAQ Visual Analogue Scale - Raynaud’s, Percent Change from Baseline, Max",Day 12 vs baseline,136.4%
same,"SHAQ Visual Analogue Scale - Raynaud’s, Percent Change from Baseline, Mean",Day 12 vs baseline,−20.44%
same,"SHAQ Visual Analogue Scale - Raynaud’s, Percent Change from Baseline, Median",Day 12 vs baseline,−33.33%
same,"SHAQ Visual Analogue Scale - Raynaud’s, Percent Change from Baseline, Min",Day 12 vs baseline,−100.0%
same,"SHAQ Visual Analogue Scale - Raynaud’s, Percent Change from Baseline, Q1",Day 12 vs baseline,−50.62%
same,"SHAQ Visual Analogue Scale - Raynaud’s, Percent Change from Baseline, Q3",Day 12 vs baseline,0.00%
same,"SHAQ Visual Analogue Scale - Breathing Problems, Change from Baseline, Max",[1],3.70
same,"SHAQ Visual Analogue Scale - Breathing Problems, Change from Baseline, Mean",[1],0.025
same,"SHAQ Visual Analogue Scale - Breathing Problems, Change from Baseline, Median",[1],0.000
same,"SHAQ Visual Analogue Scale - Breathing Problems, Change from Baseline, Min",[1],−2.00
same,"SHAQ Visual Analogue Scale - Breathing Problems, Change from Baseline, Q1",[1],−0.700
same,"SHAQ Visual Analogue Scale - Breathing Problems, Change from Baseline, Q3",[1],0.450
same,"SHAQ Visual Analogue Scale - Breathing Problems, Percent Change from Baseline, Max",[1],600.0%
same,"SHAQ Visual Analogue Scale - Breathing Problems, Percent Change from Baseline, Mean",[1],50.12%
same,"SHAQ Visual Analogue Scale - Breathing Problems, Percent Change from Baseline, Median",[1],−16.00%
same,"SHAQ Visual Analogue Scale - Breathing Problems, Percent Change from Baseline, Min",[1],−100.0%
same,"SHAQ Visual Analogue Scale - Breathing Problems, Percent Change from Baseline, Q1",[1],−75.00%
same,"SHAQ Visual Analogue Scale - Breathing Problems, Percent Change from Baseline, Q3",[1],115.63%
same,"SHAQ Alternative Disability Index, Max",In-Clinic Visit (Day 12),1.50
same,"SHAQ Alternative Disability Index, Mean",In-Clinic Visit (Day 12),0.450
same,"SHAQ Alternative Disability Index, Median",In-Clinic Visit (Day 12),0.250
same,"SHAQ Alternative Disability Index, Min",In-Clinic Visit (Day 12),0.00
same,"SHAQ Alternative Disability Index, Q1",In-Clinic Visit (Day 12),0.000
same,"SHAQ Alternative Disability Index, Q3",In-Clinic Visit (Day 12),0.714
same,"SHAQ Visual Analogue Scale - Finger Ulcers, Max",In-Clinic Visit (Day 12),5.60
same,"SHAQ Visual Analogue Scale - Finger Ulcers, Mean",In-Clinic Visit (Day 12),0.731
same,"SHAQ Visual Analogue Scale - Finger Ulcers, Median",In-Clinic Visit (Day 12),0.000
same,"SHAQ Visual Analogue Scale - Finger Ulcers, Min",In-Clinic Visit (Day 12),0.00
same,"SHAQ Visual Analogue Scale - Finger Ulcers, Q1",In-Clinic Visit (Day 12),0.000
same,"SHAQ Visual Analogue Scale - Finger Ulcers, Q3",In-Clinic Visit (Day 12),0.900
same,"SHAQ Visual Analogue Scale - Intestinal Problems, Max",In-Clinic Visit (Day 12),4.50
same,"SHAQ Visual Analogue Scale - Intestinal Problems, Mean",In-Clinic Visit (Day 12),1.121
same,"SHAQ Visual Analogue Scale - Intestinal Problems, Median",In-Clinic Visit (Day 12),0.600
same,"SHAQ Visual Analogue Scale - Intestinal Problems, Min",In-Clinic Visit (Day 12),0.00
same,"SHAQ Visual Analogue Scale - Intestinal Problems, Q1",In-Clinic Visit (Day 12),0.000
same,"SHAQ Visual Analogue Scale - Intestinal Problems, Q3",In-Clinic Visit (Day 12),1.900
same,"SHAQ Visual Analogue Scale - Overall Disease Severity, Max",In-Clinic Visit (Day 12),7.30
same,"SHAQ Visual Analogue Scale - Overall Disease Severity, Mean",In-Clinic Visit (Day 12),2.203
same,"SHAQ Visual Analogue Scale - Overall Disease Severity, Median",In-Clinic Visit (Day 12),1.400
same,"SHAQ Visual Analogue Scale - Overall Disease Severity, Min",In-Clinic Visit (Day 12),0.00
same,"SHAQ Visual Analogue Scale - Overall Disease Severity, Q1",In-Clinic Visit (Day 12),0.800
same,"SHAQ Visual Analogue Scale - Overall Disease Severity, Q3",In-Clinic Visit (Day 12),3.050
same,"SHAQ Visual Analogue Scale - Pain, Max",In-Clinic Visit (Day 12),5.50
same,"SHAQ Visual Analogue Scale - Pain, Mean",In-Clinic Visit (Day 12),2.476
same,"SHAQ Visual Analogue Scale - Pain, Median",In-Clinic Visit (Day 12),2.200
same,"SHAQ Visual Analogue Scale - Pain, Min",In-Clinic Visit (Day 12),0.00
same,"SHAQ Visual Analogue Scale - Pain, Q1",In-Clinic Visit (Day 12),1.000
same,"SHAQ Visual Analogue Scale - Pain, Q3",In-Clinic Visit (Day 12),3.800
same,"SHAQ Visual Analogue Scale - Raynaud’s, Max",In-Clinic Visit (Day 12),5.20
same,"SHAQ Visual Analogue Scale - Raynaud’s, Mean",In-Clinic Visit (Day 12),2.022
same,"SHAQ Visual Analogue Scale - Raynaud’s, Median",In-Clinic Visit (Day 12),1.400
same,"SHAQ Visual Analogue Scale - Raynaud’s, Min",In-Clinic Visit (Day 12),0.00
same,"SHAQ Visual Analogue Scale - Raynaud’s, Q1",In-Clinic Visit (Day 12),0.500
same,"SHAQ Visual Analogue Scale - Raynaud’s, Q3",In-Clinic Visit (Day 12),4.000
same,"SHAQ Visual Analogue Scale - Breathing Problems, Max",[2],6.90
same,"SHAQ Visual Analogue Scale - Breathing Problems, Mean",[2],1.388
same,"SHAQ Visual Analogue Scale - Breathing Problems, Median",[2],0.300
same,"SHAQ Visual Analogue Scale - Breathing Problems, Min",[2],0.00
same,"SHAQ Visual Analogue Scale - Breathing Problems, Q1",[2],0.000
same,"SHAQ Visual Analogue Scale - Breathing Problems, Q3",[2],1.800
